Experimental findings from US12570655B2, “Cysteine covalent modifiers of AKT1 and uses thereof” (Terremoto Biosciences, Inc., priority 2023, dated 2026) are described below.

Like-named read-outs stand apart in the source and are kept apart here.

What all share (type): cell-based
One assay has as its target T1, AKT2 (Homo sapiens, UniProt P31751).
T1 construct: expressed in transfected cells; host or cells: HEK293
Briefly: Live cell AKT2 target engagement by NanoBRET competitive probe displacement. Particulars: HEK293 cells transfected with kinase-NanoLuciferase fusion, 2 h at 37° C. The method, boiled down:
(§1)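 IC50 reflects displacement of a fluorescent ATP-competitive tracer, dosed near its EC50, from kinase–NanoLuciferase fusions in live HEK293 cells. Cells were incubated with compound and tracer for 2 h at 37 °C, then E600/E460 BRET was read.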
(Bioluminescence resonance energy transfer reports proximity on the nanometre scale.)

The test system of assay [1] is LAPC4 prostate cancer cells. As to the kind of experiment: Antiproliferative effects in LAPC4 cells (CellTiter Glo). Particulars: LAPC4 cells (AKT1 E17K allele), read-out: LAPC4 proliferation IC50. The method, boiled down:
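Seed 1,000 cells/well in IMDM/12% FBS/1% P/S; add compound dilutions (DMSO); incubate 72 h; read intracellular ATP with CellTiter Glo; fit luminescence to log(inhibitor)-response Hill curve for IC50.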
On the technique in general: ATP-based viability assays read luminescence as a measure of living cells.

Another assay addresses T2, AKT1 E17K (Homo sapiens, UniProt P31749, E17K).
T2 construct: expressed in transfected cells; host or cells: HEK293
Briefly: Live cell AKT1 E17K target engagement by NanoBRET competitive probe displacement. The conditions noted are these: HEK293 cells transfected with kinase-NanoLuciferase fusion, 2 h at 37° C. The method, boiled down:
as §1

The target in the next assay is T3, AKT1 WT (Homo sapiens, UniProt P31749).
T3 construct: expressed in transfected cells; host or cells: HEK293
As to the kind of experiment: Live cell AKT1 WT target engagement by NanoBRET competitive probe displacement. The conditions noted are these: HEK293 cells transfected with kinase-NanoLuciferase fusion, 2 h at 37° C. In a few lines: as §1

T3 sequence (P31749 whole entry): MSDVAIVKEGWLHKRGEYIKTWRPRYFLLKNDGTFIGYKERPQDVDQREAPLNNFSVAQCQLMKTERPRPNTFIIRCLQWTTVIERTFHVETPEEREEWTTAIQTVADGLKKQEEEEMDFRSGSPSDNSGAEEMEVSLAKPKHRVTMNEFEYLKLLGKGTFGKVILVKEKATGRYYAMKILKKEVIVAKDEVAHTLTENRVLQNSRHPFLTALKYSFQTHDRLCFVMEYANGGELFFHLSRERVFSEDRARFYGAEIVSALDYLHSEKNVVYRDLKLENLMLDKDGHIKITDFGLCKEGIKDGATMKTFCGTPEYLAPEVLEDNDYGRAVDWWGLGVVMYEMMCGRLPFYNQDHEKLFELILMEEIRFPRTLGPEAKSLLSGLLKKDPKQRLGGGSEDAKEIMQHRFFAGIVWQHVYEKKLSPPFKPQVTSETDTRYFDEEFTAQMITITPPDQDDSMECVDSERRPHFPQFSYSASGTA
T1 sequence (P31751 whole entry): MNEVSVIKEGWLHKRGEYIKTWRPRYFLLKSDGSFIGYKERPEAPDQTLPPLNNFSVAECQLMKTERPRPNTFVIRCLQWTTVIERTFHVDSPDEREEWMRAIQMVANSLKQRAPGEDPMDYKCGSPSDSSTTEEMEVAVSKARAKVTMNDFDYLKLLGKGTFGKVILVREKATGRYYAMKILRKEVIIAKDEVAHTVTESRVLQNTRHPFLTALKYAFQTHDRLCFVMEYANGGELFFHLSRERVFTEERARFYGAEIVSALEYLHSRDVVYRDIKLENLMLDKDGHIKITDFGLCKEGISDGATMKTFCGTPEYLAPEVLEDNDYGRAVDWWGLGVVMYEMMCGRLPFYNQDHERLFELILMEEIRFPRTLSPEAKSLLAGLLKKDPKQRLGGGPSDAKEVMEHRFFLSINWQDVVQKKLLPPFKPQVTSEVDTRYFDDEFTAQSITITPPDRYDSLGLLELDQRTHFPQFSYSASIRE
T2 sequence (P31749 whole entry E17K): as the sequence (P31749 whole entry) above, with E17K counted along it

Take `C=CC(=O)N1CCc2cccc(C(=O)N[C@H]3CCc4cc(-n5c(-c6cccnc6N)nc6ccc(-n7cccn7)nc65)ccc43)c21` [Example 10, N-[(1S)-5-[2-(2-aminopyridin-3-yl)-5-(pyrazol-1-yl)imidazo[4,5-b]pyridin-3-yl]-2,3-dihydro-1H-inden-1-yl]1-(prop-2-enoyl)-2,3-dihydroindole-7-carboxamide]: the IC50 is 1.47 µM at AKT2; 1.86 µM in assay [1] (Homo sapiens, LAPC4, 72 h); more than 1 µM at AKT1 E17K; 0.121 µM at AKT1 WT.
On to `C=CC(=O)N1[C@H](C)CC(N[C@H]2CCc3cc(-n4c(-c5cccnc5N)nc5ccc(-n6cccn6)nc54)ccc32)C[C@@H]1C` (single isomer, unassigned) [Example 88, 1-((2S,4*,6R)-4-(((R)-5-(2-(2-aminopyridin-3-yl)-5-(1H-pyrazol-1-yl)-3H-imidazo[4,5-b]pyridin-3-yl)-2,3-dihydro-1H-inden-1-yl)amino)-2,6-dimethylpiperidin-1-yl)prop-2-en-1-one], for which the IC50 was determined as 0.18 µM at AKT2, 0.0877 µM in assay [1] (72 h), 0.0487 µM at AKT1 E17K and 0.0215 µM on AKT1 WT.
Take `C=CC(=O)N1CCC(N[C@@H]2c3ccc(-n4c(-c5cccnc5N)nc5ccc(-n6ccc(OC)n6)nc54)cc3CC2F)CC1` (single isomer, unassigned) [Example 286, 1-(4-(((1R,2*)-5-(2-(2-aminopyridin-3-yl)-5-(3-methoxy-1H-pyrazol-1-yl)-3H-imidazo[4,5-b]pyridin-3-yl)-2-fluoro-2,3-dihydro-1H-inden-1-yl)amino)piperidin-1-yl)prop-2-en-1-one]: the IC50 at AKT2 was determined as 0.0363 µM; in assay [1] (Homo sapiens, LAPC4, 72 h), 0.124 µM; on AKT1 E17K, 0.0107 µM; at AKT1 WT, 0.273 µM.
For `C=CC(=O)N1CCC(N[C@@H]2c3ccc(-n4c(-c5cccnc5N)nc5ccc(-n6cccn6)nc54)cc3CC2(F)F)CC1` [Example 119, 1-(4-{[(1R)-5-[2-(2-aminopyridin-3-yl)-5-(pyrazol-1-yl)imidazo[4,5-b]pyridin-3-yl]-2,2-difluoro-1,3-dihydroinden-1-yl]amino}piperidin-1-yl)prop-2-en-1-one], the IC50 on AKT2 worked out at 3.59 µM; in assay [1] (Homo sapiens, LAPC4, 72 h) it was 0.595 µM; on AKT1 E17K, 0.582 µM; at AKT1 WT, 0.0856 µM.
The like results for `C/C=C/C(=O)N1CCC(N[C@H]2CCc3cc(-n4c(-c5cccnc5N)nc5ccc(-n6cccn6)nc54)ccc32)CC1` [Example 96, (S,E)-1-(4-((5-(2-(2-aminopyridin-3-yl)-5-(1H-pyrazol-1-yl)-3H-imidazo[4,5-b]pyridin-3-yl)-2,3-dihydro-1H-inden-1-yl)amino)piperidin-1-yl)but-2-en-1-one] were, in that order, 3.91 µM, 3.65 µM, more than 1 µM and 0.058 µM.
In the same order, the values of `C=CC(=O)N1CCC(N[C@H]2CCc3cc(-n4c(-c5cccnc5N)nc5ccc(-n6ccc(C(C)C)n6)nc54)ccc32)CC1` [Example 281, 1-(4-{[(1S)-5-[2-(2-aminopyridin-3-yl)-5-(3-isopropylpyrazol-1-yl)imidazo[4,5-b]pyridin-3-yl]-2,3-dihydro-1H-inden-1-yl]amino}piperidin-1-yl)prop-2-en-1-one] are 0.0808 µM, 0.253 µM, 0.0154 µM and 0.254 µM.
In the same order, the values of `C=CC(=O)N1CCC(N[C@H]2CCc3cc(-n4c(-c5cccnc5N)nc5ccc(-n6ccc(OC7CC7)n6)nc54)ccc32)CC1` [Example 314, 1-(4-{[(1S)-5-[2-(2-aminopyridin-3-yl)-5-(3-cyclopropoxypyrazol-1-yl)imidazo[4,5-b]pyridin-3-yl]-2,3-dihydro-1H-inden-1-yl]amino}piperidin-1-yl)prop-2-en-1-one] are 0.0238 µM, 0.0549 µM, 0.00744 µM and 0.0951 µM.
On to `C#CC1CC(N[C@H]2CCc3cc(-n4c(-c5cccnc5N)nc5ccc(-n6cccn6)nc54)ccc32)CCN1C(=O)C=C` (single isomer, unassigned) [Example 111, 1-((2*,4*)-4-(((S)-5-(2-(2-aminopyridin-3-yl)-5-(1H-pyrazol-1-yl)-3H-imidazo[4,5-b]pyridin-3-yl)-2,3-dihydro-1H-inden-1-yl)amino)-2-ethynylpiperidin-1-yl)prop-2-en-1-one], for which the IC50 on AKT2 is 0.143 µM; in assay [1] (72 h), 0.343 µM; at AKT1 E17K, 0.127 µM; at AKT1 WT, 0.0216 µM.
For `C=CC(=O)N1CCC(N[C@H]2CCc3cc(-n4c(-c5cccnc5N)nc5c(OC)cc(-n6cccn6)nc54)ccc32)CC1` [Example 337, 1-(4-{[(1S)-5-[2-(2-aminopyridin-3-yl)-7-methoxy-5-(pyrazol-1-yl)imidazo[4,5-b]pyridin-3-yl]-2,3-dihydro-1H-inden-1-yl]amino}piperidin-1-yl)prop-2-en-1-one], the IC50 at AKT2 came to 0.0294 µM; in assay [1] (Homo sapiens, LAPC4, 72 h), 0.0995 µM; on AKT1 E17K, 0.00633 µM; at AKT1 WT, 0.0303 µM.
The like results for `C=CC(=O)N1CCC(N[C@H]2CCc3cc(-n4c(-c5cccnc5N)nc5ccc(-c6cnn(C)n6)nc54)ccc32)CC1` [Example 160, 1-(4-{[(1S)-5-[2-(2-aminopyridin-3-yl)-5-(2-methyl-1,2,3-triazol-4-yl)imidazo[4,5-b]pyridin-3-yl]-2,3-dihydro-1H-inden-1-yl]amino}piperidin-1-yl)prop-2-en-1-one] were, in that order, 0.0296 µM, 0.0274 µM, 0.0269 µM and 0.00931 µM.
With `C=CC(=O)N1CCC(N[C@@H]2c3ccc(-n4c(-c5cccnc5N)nc5ccc(-n6ccc(OC)n6)nc54)cc3CC2F)CC1` (single isomer, unassigned) [Example 287, 1-(4-(((1R,2*)-5-(2-(2-aminopyridin-3-yl)-5-(3-methoxy-1H-pyrazol-1-yl)-3H-imidazo[4,5-b]pyridin-3-yl)-2-fluoro-2,3-dihydro-1H-inden-1-yl)amino)piperidin-1-yl)prop-2-en-1-one], the IC50 was determined as 0.0418 µM on AKT2, 0.11 µM in assay [1] (72 h), 0.00768 µM at AKT1 E17K and 0.227 µM at AKT1 WT.
In the same order, the values of `C=CC(=O)N1C[C@H]2C[C@@H](C1)C2N[C@H]1CCc2cc(-n3c(-c4cccnc4N)nc4ccc(-n5cccn5)nc43)ccc21` (single isomer, unassigned) [Example 59, 1-((1R,5S,6*)-6-(((S)-5-(2-(2-aminopyridin-3-yl)-5-(1H-pyrazol-1-yl)-3H-imidazo[4,5-b]pyridin-3-yl)-2,3-dihydro-1H-inden-1-yl)amino)-3-azabicyclo[3.1.1]heptan-3-yl)prop-2-en-1-one] are 0.648 µM, 0.377 µM, 0.242 µM and 0.0448 µM.
Regarding `C=CC(=O)N1CCC(N[C@H]2CCc3cc(-n4c(-c5cccnc5N)nc5ccc(C(F)(F)F)nc54)ccc32)CC1` [Example 348], the IC50 is 0.362 µM on AKT2; 0.872 µM in assay [1] (Homo sapiens, LAPC4, 72 h); 0.032 µM at AKT1 E17K; 2.67 µM on AKT1 WT.
Consider `C=CC(=O)N1CCC(N[C@H]2CCc3cc(-n4c(-c5cccnc5N)nc5ccc(-n6cccn6)nc54)ccc32)C(C)C1` (single isomer, unassigned) [Example 102, 1-((3*,4*)-4-(((S)-5-(2-(2-aminopyridin-3-yl)-5-(1H-pyrazol-1-yl)-3H-imidazo[4,5-b]pyridin-3-yl)-2,3-dihydro-1H-inden-1-yl)amino)-3-methylpiperidin-1-yl)prop-2-en-1-one], for which the IC50 was 0.101 µM at AKT2, 0.147 µM in assay [1] (72 h), 0.0354 µM at AKT1 E17K and 0.00809 µM at AKT1 WT.
As to `C=CC(=O)Nc1cc(C(=O)N[C@H]2CCc3cc(-n4c(-c5cccnc5N)nc5ccc(-n6cccn6)nc54)ccc32)ccn1` [Example 11, (S)-2-acrylamido-N-(5-(2-(2-aminopyridin-3-yl)-5-(1H-pyrazol-1-yl)-3H-imidazo[4,5-b]pyridin-3-yl)-2,3-dihydro-1H-inden-1-yl)isonicotinamide], the IC50 amounted to 0.0259 µM on AKT2; 0.65 µM in assay [1] (Homo sapiens, LAPC4, 72 h); 0.00703 µM on AKT1 E17K; 0.00429 µM at AKT1 WT.
On to `C=CC(=O)N1CCCC(N[C@H]2CCc3cc(-n4c(-c5cccnc5N)nc5ccc(-n6cccn6)nc54)ccc32)CC1` (single isomer, unassigned) [Example 81, 1-((*)-4-(((S)-5-(2-(2-aminopyridin-3-yl)-5-(1H-pyrazol-1-yl)-3H-imidazo[4,5-b]pyridin-3-yl)-2,3-dihydro-1H-inden-1-yl)amino)azepan-1-yl)prop-2-en-1-one], for which the IC50 is 1.2 µM at AKT2, 7.6 µM in assay [1] (72 h), more than 1 µM on AKT1 E17K and 0.0932 µM on AKT1 WT.
In the same order, the values of `C=CC(=O)N1CCC(N[C@@H]2c3ccc(-n4c(-c5cccnc5N)nc5ccc(-n6ccc(F)n6)nc54)cc3CC2F)C[C@@H]1C` (single isomer, unassigned) [Example 272, 1-((2S,4*)-4-(((1R,2*)-5-(2-(2-aminopyridin-3-yl)-5-(3-fluoro-1H-pyrazol-1-yl)-3H-imidazo[4,5-b]pyridin-3-yl)-2-fluoro-2,3-dihydro-1H-inden-1-yl)amino)-2-methylpiperidin-1-yl)prop-2-en-1-one] are 0.0921 µM, 0.351 µM, 0.0236 µM and 1.24 µM.
